Measured values reported in US10774083B2, “Heterocyclic amide compound” (TAKEDA PHARMACEUTICAL COMPANY LIMITED, priority 2016, dated 2020).
Values belong to the molecule of their own block, whether it stands above or below them.

Columns and labels:
[1] = target: T1, human PRS protein (His-Avi-hEPRS (998-1512)) (Homo sapiens, UniProt P07814); test: PRS inhibitory activity ([32P]pyrophosphate exchange enzyme assay); type: biochemical; conditions: 300 nM test compound; read-out: inhibitory rate (%) of PRS
T1 construct: to construct His-Avi-hEPRS (998-1512) expression plasmid; His tag (N); Avi tag (N); TEV cleavage site (ENLYFQG, then S; inferred from the forward primer hEPRS-TEV-NheF) (N); made in house; host or cells: E. coli BL21(DE3)
T1 sequence (P07814 998-1512 limits assumed): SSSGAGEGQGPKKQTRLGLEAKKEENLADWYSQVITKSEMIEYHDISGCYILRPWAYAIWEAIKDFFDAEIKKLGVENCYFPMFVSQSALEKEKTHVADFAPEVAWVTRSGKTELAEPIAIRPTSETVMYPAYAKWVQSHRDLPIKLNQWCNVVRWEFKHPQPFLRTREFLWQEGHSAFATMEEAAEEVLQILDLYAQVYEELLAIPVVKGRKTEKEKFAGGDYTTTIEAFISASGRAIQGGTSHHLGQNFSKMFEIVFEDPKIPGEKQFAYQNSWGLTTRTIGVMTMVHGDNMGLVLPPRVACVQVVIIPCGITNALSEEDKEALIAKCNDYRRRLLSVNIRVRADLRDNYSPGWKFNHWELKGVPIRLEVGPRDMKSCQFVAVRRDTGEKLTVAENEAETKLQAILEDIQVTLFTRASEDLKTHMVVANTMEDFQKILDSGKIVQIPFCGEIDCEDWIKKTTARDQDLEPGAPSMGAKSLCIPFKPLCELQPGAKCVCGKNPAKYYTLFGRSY
Procedure: The PRS inhibitory activity of the compounds of the present invention was evaluated by the following method.
An expression plasmid of Catalytic Domain of human EPRS was obtained by PCR using human skeletal muscle cDNA Library (Takara Bio Inc.) as a template and 2 kinds of Primers 5′-[…]-3′ (hEPRS-TEV-NheF) (SEQ ID NO: 1) and 5′-[…]-3′ (hEPRS-St-Not-R) (SEQ ID NO: 2). PCR was performed using PrimeStar GXL DNA Polymerase (Takara Bio Inc.) and included (1) 98° C., 1 min, (2) 35 cycles of 98° C., 10 sec, 65° C., 10 sec, 72° C., 1 min, and (3) reaction at 72° C., 1 min. This was cleaved with Nhe I and Not I (Takara Bio Inc.) and inserted using Ligation High (TOYOBO CO., LTD.) into the Nhe I/Not I site of pET21a (Novagen) with His-Avitag inserted thereinto. This was introduced into ECOS JM109 (NIPPON GENE CO., LTD.) to construct His-Avi-hEPRS (998-1512) expression plasmid.
Recombinant human PRS protein was prepared by transforming the His-Avi-hEPRS (998-1512) expression plasmid prepared above into ECOS Competent E. coli BL21(DE3) (NIPPON GENE CO., LTD.). Escherichia coli obtained by transformation was inoculated into 300 mL of LB medium (1% peptone, 0.5% yeast extract, 0.5% sodium chloride, 0.01% ampicillin) and cultured at 30° C. for 16 hr. The obtained culture medium was transferred into a jar culture tank charged with 6 L of the main fermentation medium (0.3% potassium dihydrogen phosphate, 0.6% disodium hydrogen phosphate, 0.1% ammonium chloride, 0.05% sodium chloride, 0.024% magnesium sulfate, 0.02% NEWPOL LB-625, 1.5% sorbitol, 1.5% casamino acid, 0.5% yeast extract, 0.01% ampicillin) and culturing was started at 37° C., quantity of airflow 5 L/min, stirring rotating speed 400 rpm. At the time point when the turbidity of the culture medium reached about 550 Klett units, the culture temperature was lowered to 16° C., isopropyl-β-D-thiogalactopyranoside (IPTG) was added to the final concentration 0.1 mM, and culturing was performed for another 16 hr to induce expression of human PRS. After completion of culturing, the culture medium was centrifuged at 5,000 rpm for 10 min. The obtained human PRS expressing Escherichia coli was suspended in a buffer containing 50 mM Tris-HCl (pH 8.0), 150 mM NaCl, 1 mM DTT, 5 U/ml Benzonase, 20 mM Imidazole and sonicated using Sonifier (BRANSON). The homogenate was centrifuged (33,000×G, 60 min, Beckman Coulter), the obtained supernatant was subjected to adsorption by passage through Ni-NTA Superflow (QIAGEN) column equilibrated in advance with 50 mM Tris-HCl (pH 8.0), 300 mM NaCl, 1 mM DTT, and elution was performed with a buffer containing 50 mM Tris-HCl (pH 8.0), 300 mM NaCl, 1 mM DTT, 250 mM Imidazole. Furthermore, gel filtration was performed using Superdex200 pg column equilibrated in advance with a buffer containing 50 mM Tris-HCl (pH 8.0), 150 mM NaCl, 1 mM DTT, 10% glycerol to give purified human PRS protein. The protein concentration was measured using BCA Protein Assay Kit (PIERCE) and BSA as the standard.
A test compound was dissolved in 5 μL of an assay buffer (50 mM Tris-HCl (pH 7.5), 20 mM KCl, 1 mM DTT, 0.01% Tween 20) and incubated for 60 min with 5 μL of 40 nM human PRS protein dissolved in the assay buffer containing 40 mM MgCl2. An enzyme reaction of the human PRS protein was started by adding 10 μL of a substrate solution containing 300 μM ATP, 160 μM L-Proline, 400 μM pyrophosphate, [^32P]pyrophosphate (PerkinElmer) prepared to 1 MBq/mL. After incubation at room temperature for 30 min, the reaction was discontinued by adding 50 μL of discontinuation/washing solution (1M HCl, 200 mM sodium pyrophosphate) to the reaction mixture. The reaction solution was transferred to a filter plate (Merck Millipore, Billerica, Mass.) previously added with 200 μL of charcoal solution (0.5% HCl solution containing 10% charcoal (w/v)). […]

[2] = tested on: human ovarian cancer cells A2780; test: proliferation inhibitory activity against human ovarian cancer cell A2780 (CellTiter-Glo); type: cell-based; conditions: A2780, 72 h, 1 μM test compound, 3 days of culture, read-out: proliferation inhibitory rate (%) of A2780 cells
Procedure: The proliferation inhibitory activity of the compound of the present invention against human ovarian cancer cell A2780 was evaluated by the following method.
Human ovarian cancer cells A2780 were seeded in a 384 well culture plate at 1000 cells in 30 μL of medium per well by using RPMI-1640 medium (Wako Pure Chemical Industries, Ltd.) containing 10% fetal bovine serum and penicillin/streptomycin. The next day, 10 μL of RPMI-1640 medium containing the test compound was added to the cells. After 3 days of culture, 20 μL of CellTiter-Glo Luminescent Cell Viability Assay solution (Promega) was added. The luminescence signal was measured using EnVision (PerkinElmer) and the inhibitory rate (%) of the test compound was calculated with a well free of seeding of cell as 100% inhibition.

SMILES: Cn1cc(-c2cc(F)cc(CNC(=O)c3ncnc4nc(C5CCCC5)n(C)c34)c2)nn1 [Example 7, 8-cyclopentyl-N-(3-fluoro-5-(1-methyl-1H-1,2,3-triazol-4-yl)benzyl)-7-methyl-7H-purine-6-carboxamide]
inhibition at 0.3 µM [1]: 102% | inhibition at 1 µM [2]: 95%

SMILES: Cn1cc2c(CNC(=O)c3ncnc4nc(C5CCCC5)[nH]c34)cccc2n1 [Example 10, 8-cyclopentyl-N-((2-methyl-2H-indazol-4-yl)methyl)-7H-purine-6-carboxamide]
inhibition at 0.3 µM [1]: 97% | inhibition at 1 µM [2]: 55%

SMILES: CC(C)n1cc(-c2cc(F)cc(CNC(=O)c3ncnc4nc(C5CCCC5)[nH]c34)c2)cn1 [Example 11, 8-cyclopentyl-N-(3-fluoro-5-(1-isopropyl-1H-pyrazol-4-yl)benzyl)-7H-purine-6-carboxamide]
inhibition at 0.3 µM [1]: 102% | inhibition at 1 µM [2]: 95%

SMILES: O=C(NCc1cc(F)cc(-c2cnn(C3CC3)c2)c1)c1ncnc2nc(C3CCCC3)[nH]c12 [Example 14, 8-cyclopentyl-N-(3-(1-cyclopropyl-1H-pyrazol-4-yl)-5-fluorobenzyl)-7H-purine-6-carboxamide]
inhibition at 0.3 µM [1]: 100% | inhibition at 1 µM [2]: 97%

SMILES: Cn1cc(-c2cc(C#N)cc(CNC(=O)c3ncnc4nc(C5CCCC5)[nH]c34)c2)cn1 [Example 16, N-(3-cyano-5-(1-methyl-1H-pyrazol-4-yl)benzyl)-8-cyclopentyl-7H-purine-6-carboxamide]
inhibition at 0.3 µM [1]: 102% | inhibition at 1 µM [2]: 93%

SMILES: COc1nc(C(=O)NCc2cc(F)cc(-c3cnn(C)c3)c2)c2[nH]c(C3CCCC3)nc2n1 [Example 18, 8-cyclopentyl-N-(3-fluoro-5-(1-methyl-1H-pyrazol-4-yl)benzyl)-2-methoxy-7H-purine-6-carboxamide]
inhibition at 0.3 µM [1]: 99% | inhibition at 1 µM [2]: 77%

SMILES: Cn1cc(-c2cc(C#N)cc(CNC(=O)c3ncnc4nc(C5CCCO5)n(C)c34)c2)cn1 (stereo not drawn) [Example 23, N-(3-cyano-5-(l-methyl-1H-pyrazol-4-yl)benzyl)-7-methyl-8-(tetrahydrofuran-2-yl)-7H-purine-6-carboxamide]
inhibition at 0.3 µM [1]: 102% | inhibition at 1 µM [2]: 69%

SMILES: Cn1cc(-c2cc(F)cc(CNC(=O)c3ncnc4nc(C5CCOC5)[nH]c34)c2)cn1 (stereo not shown) [Example 24, N-(3-fluoro-5-(1-methyl-1H-pyrazol-4-yl)benzyl)-8-(tetrahydrofuran-3-yl)-7H-purine-6-carboxamide]
inhibition at 0.3 µM [1]: 96% | inhibition at 1 µM [2]: 57%

Now from value to molecule, other results behind:

inhibition at 0.3 µM [1]: 99%
SMILES: Cn1cc(-c2cc(F)cc(CNC(=O)c3ncnc4nc(C5(F)CCCC5)[nH]c34)c2)cn1 [Example 27, 8-(1-fluorocyclopentyl)-N-(3-fluoro-5-(1-methyl-1H-pyrazol-4-yl)benzyl)-7H-purine-6-carboxamide]
inhibition at 1 µM [2]: 97%

inhibition at 0.3 µM [1]: 102%
SMILES: Cn1c(C2CCCC2)nc2ncnc(C(=O)NCc3cc(F)cc(-c4cnn(C(C)(C)CO)c4)c3)c21 [Example 30, 8-cyclopentyl-N-(3-fluoro-5-(1-(1-hydroxy-2-methylpropan-2-yl)-1H-pyrazol-4-yl)benzyl)-7-methyl-7H-purine-6-carboxamide]
inhibition at 1 µM [2]: 99%

inhibition at 0.3 µM [1]: 102%
SMILES: Cn1cc(-c2cc(F)cc(CNC(=O)c3ncnc4nc(C5CCCCO5)[nH]c34)c2)cn1 (stereo not shown) [Example 31, N-(3-fluoro-5-(1-methyl-1H-pyrazol-4-yl)benzyl)-8-(tetrahydro-2H-pyran-2-yl)-7H-purine-6-carboxamide]
inhibition at 1 µM [2]: 97%

inhibition at 0.3 µM [1]: 102%
SMILES: Cn1cc(-c2cc(F)cc(CNC(=O)c3ncnc4nc(C5CCC(F)(F)C5)[nH]c34)c2)cn1 (stereo not shown) [Example 40, 8-(3,3-difluorocyclopentyl)-N-(3-fluoro-5-(1-methyl-1H-pyrazol-4-yl)benzyl)-7H-purine-6-carboxamide]
inhibition at 1 µM [2]: 98%

inhibition at 0.3 µM [1]: 98%
SMILES: Cn1cc(-c2cc(F)cc(CNC(=O)c3nc(N)nc4nc(C5CCCC5)[nH]c34)c2)cn1 [Example 42, 2-amino-8-cyclopentyl-N-(3-fluoro-5-(1-methyl-1H-pyrazol-4-yl)benzyl)-7H-purine-6-carboxamide]
inhibition at 1 µM [2]: 59%

inhibition at 0.3 µM [1]: 101%
SMILES: CC(c1nc2ncnc(C(=O)NCc3cc(F)cc(-c4cnn(C)c4)c3)c2[nH]1)C1CC1 (stereo not shown) [Example 45, 8-(1-cyclopropylethyl)-N-(3-fluoro-5-(1-methyl-1H-pyrazol-4-yl)benzyl)-7H-purine-6-carboxamide]
inhibition at 1 µM [2]: 99%

inhibition at 0.3 µM [1]: 99%
SMILES: Cn1cc(-c2ccnc(CNC(=O)c3ncnc4nc(C5CCCC5)n(C)c34)c2)cn1 [Example 52, 8-cyclopentyl-7-methyl-N-((4-(1-methyl-1H-pyrazol-4-yl)pyridin-2-yl)methyl)-7H-purine-6-carboxamide]
inhibition at 1 µM [2]: 69%

inhibition at 0.3 µM [1]: 102%
SMILES: Cc1cn(-c2cc(F)cc(CNC(=O)c3ncnc4nc(C5CCCC5)n(C)c34)c2)nc1C [Example 56, 8-cyclopentyl-N-(3-(3,4-dimethyl-1H-pyrazol-1-yl)-5-fluorobenzyl)-7-methyl-7H-purine-6-carboxamide]
inhibition at 1 µM [2]: 99%

inhibition at 0.3 µM [1]: 99%
SMILES: Cn1cc(-c2cc(F)cc(CNC(=O)c3ncnc4nc(C5CCC5)[nH]c34)c2)cn1 [Example 58, 8-cyclobutyl-N-(3-fluoro-5-(1-methyl-1H-pyrazol-4-yl)benzyl)-7H-purine-6-carboxamide]
inhibition at 1 µM [2]: 66%
